# Active and inactive are the calls of the source. The rule behind the calls is not given here.
# Legend:
# [1] = tested on: PC-3; experiment: Induction of apoptosis in human PC-3 cells assessed as apoptotic rate at 1 uM incubated for 48 hrs by Annexin V-FITC/PI staining based flow cytometric analysis relative to control; type: functional
# [2] = tested on: PC-3; experiment: Induction of apoptosis in human PC-3 cells assessed as apoptotic rate at 5 to 10 uM incubated for 48 hrs by Annexin V-FITC/PI staining based flow cytometric analysis relative to control; type: functional; conditions: dose 5-10 µM
# [3] = tested on: PC-3; experiment: Cell cycle arrest in human PC-3 cells assessed as accumulation of cells at G1 phase at 1 uM incubated for 48 hrs by PI staining based flow cytometric analysis (reference value: 60.75 %); type: functional
# [4] = tested on: PC-3; experiment: Cell cycle arrest in human PC-3 cells assessed as accumulation of cells at S phase at 1 uM incubated for 48 hrs by PI staining based flow cytometric analysis (reference value: 24.79 %); type: functional
# [5] = tested on: PC-3; experiment: Cell cycle arrest in human PC-3 cells assessed as accumulation of cells at G2 phase at 1 uM incubated for 48 hrs by PI staining based flow cytometric analysis (reference value: 14.45 %); type: functional
# [6] = tested on: PC-3; experiment: Cell cycle arrest in human PC-3 cells assessed as accumulation of cells at G1 phase at 5 uM incubated for 48 hrs by PI staining based flow cytometric analysis (reference value: 60.75 %); type: functional
# [7] = tested on: PC-3; experiment: Cell cycle arrest in human PC-3 cells assessed as accumulation of cells at S phase at 5 uM incubated for 48 hrs by PI staining based flow cytometric analysis (reference value: 24.79 %); type: functional
# [8] = tested on: PC-3; experiment: Cell cycle arrest in human PC-3 cells assessed as accumulation of cells at G2 phase at 5 uM incubated for 48 hrs by PI staining based flow cytometric analysis (reference value: 14.45 %); type: functional
# [9] = tested on: PC-3; experiment: Cell cycle arrest in human PC-3 cells assessed as accumulation of cells at G1 phase at 10 uM incubated for 48 hrs by PI staining based flow cytometric analysis (reference value: 60.75 %); type: functional
# [10] = tested on: PC-3; experiment: Cell cycle arrest in human PC-3 cells assessed as accumulation of cells at S phase at 10 uM incubated for 48 hrs by PI staining based flow cytometric analysis (reference value: 24.79 %); type: functional
# [11] = tested on: PC-3; experiment: Cell cycle arrest in human PC-3 cells assessed as accumulation of cells at G2 phase at 10 uM incubated for 48 hrs by PI staining based flow cytometric analysis (reference value: 14.45 %); type: functional
# [12] = tested on: PC-3; experiment: Inhibition of AKT signaling pathway in human PC-3 cells assessed as reduction in phosphorylated GSK3beta level at 1 to 10 uM incubated for 24 hrs by Western blot analysis; type: cell-based; conditions: dose 1-10 µM
# [13] = tested on: PC-3; experiment: Upregulation of phosphorylated AKT expression level in human PC-3 cells at 1 to 10 uM incubated for 24 hrs by Western blot analysis; type: functional, cell-based; conditions: dose 1-10 µM
# [14] = tested on: PC-3; experiment: cells; conditions: Homo sapiens, PC-3, 72 h
# Description: Antiproliferative activity against human PC-3 cells assessed as inhibition of cell proliferation incubated for 72 hrs by MTT assay
# [15] = target: RAC-beta serine/threonine-protein kinase (Homo sapiens) (UniProt P31751); experiment: Inhibition of AKT2 (unknown origin) using biotin-tagged STK as substrate at 10 nM incubated for 40 mins in presence of ATP by fluorescence based microplate reader analysis relative to control
# [16] = target: RAC-gamma serine/threonine-protein kinase (Homo sapiens) (UniProt Q9Y243); experiment: Inhibition of AKT3 (unknown origin) using biotin-tagged STK as substrate at 10 nM incubated for 40 mins in presence of ATP by fluorescence based microplate reader analysis relative to control
# [17] = target: Ribosomal protein S6 kinase alpha-1 (Homo sapiens) (UniProt Q15418); experiment: Inhibition of RSK1 (unknown origin) at 1 uM relative to control
# [18] = species: Homo sapiens; experiment: Inhibition of PKA (unknown origin) at 1 uM relative to control
# [19] = target: Ribosomal protein S6 kinase beta-1 (Homo sapiens) (UniProt P23443); experiment: Inhibition of p70S6K (unknown origin) at 1 uM relative to control
# [20] = target: Rho-associated protein kinase 1 (Homo sapiens) (UniProt Q13464); experiment: Inhibition of ROCK1 (unknown origin) at 1 uM relative to control
# [21] = species: Homo sapiens; experiment: Inhibition of ABL (unknown origin) at 1 uM relative to control
# [22] = target: Cyclin-dependent kinase 1 (Homo sapiens) (UniProt P06493); experiment: Inhibition of CDK1 (unknown origin) at 1 uM relative to control
# [23] = target: Glycogen synthase kinase-3 beta (Homo sapiens) (UniProt P49841); experiment: Inhibition of GSK3beta (unknown origin) at 1 uM relative to control
# [24] = target: Tyrosine-protein kinase JAK1 (Homo sapiens) (UniProt P23458); experiment: Inhibition of JAK1 (unknown origin) at 1 uM relative to control
# [25] = target: MAP kinase-interacting serine/threonine-protein kinase 1 (Homo sapiens) (UniProt Q9BUB5); experiment: Inhibition of MNK1 (unknown origin) at 1 uM relative to control
# [26] = target: Serine/threonine-protein kinase B-raf (Homo sapiens) (UniProt P15056); experiment: Inhibition of B-raf (unknown origin) at 1 uM relative to control
# [27] = target: RAF proto-oncogene serine/threonine-protein kinase (Homo sapiens) (UniProt P04049); experiment: Inhibition of RAF-1 (unknown origin) at 1 uM relative to control
# [28] = Clearance in male ICR mouse at 1 mg/kg, iv measured after 24 hrs by LC-MS/MS analysis; type: ADME, organism-based; conditions: in vivo
# [29] = Half-life in male ICR mouse at 1 mg/kg, iv measured after 24 hrs by LC-MS/MS analysis; type: ADME, organism-based; conditions: in vivo
# [30] = AUC (0 to t) in male ICR mouse at 1 mg/kg, iv measured after 24 hrs by LC-MS/MS analysis; type: ADME, organism-based; conditions: in vivo
# [31] = AUC (0 to infinity) in male ICR mouse at 1 mg/kg, iv measured after 24 hrs by LC-MS/MS analysis; type: ADME, organism-based; conditions: in vivo
# [32] = Volume of distribution in male ICR mouse at 1 mg/kg, iv measured after 24 hrs by LC-MS/MS analysis; type: ADME, organism-based; conditions: in vivo
# [33] = MRT (0 to infinity) in male ICR mouse at 1 mg/kg, iv measured after 24 hrs by LC-MS/MS analysis; type: ADME, organism-based; conditions: in vivo
# [34] = Half-life in male ICR mouse at 10 mg/kg, po measured after 24 hrs by LC-MS/MS analysis; type: ADME, organism-based; conditions: in vivo
# [35] = AUC (0 to t) in male ICR mouse at 10 mg/kg, po measured after 24 hrs by LC-MS/MS analysis; type: ADME, organism-based; conditions: in vivo
# [36] = AUC (0 to infinity) in male ICR mouse at 10 mg/kg, po measured after 24 hrs by LC-MS/MS analysis; type: ADME, organism-based; conditions: in vivo
# [37] = MRT (0 to infinity) in male ICR mouse at 10 mg/kg, po measured after 24 hrs by LC-MS/MS analysis; type: ADME, organism-based; conditions: in vivo
# [38] = Tmax in male ICR mouse at 10 mg/kg, po measured after 24 hrs by LC-MS/MS analysis; type: ADME, organism-based; conditions: in vivo
# [39] = Cmax in male ICR mouse at 10 mg/kg, po measured after 24 hrs by LC-MS/MS analysis; type: ADME, organism-based; conditions: in vivo
# [40] = Oral bioavailability in male ICR mouse at 10 mg/kg measured after 24 hrs by LC-MS/MS analysis; type: ADME, organism-based; conditions: in vivo
# RAC-gamma serine/threonine-protein kinase (Homo sapiens), sequence (Q9Y243 whole entry): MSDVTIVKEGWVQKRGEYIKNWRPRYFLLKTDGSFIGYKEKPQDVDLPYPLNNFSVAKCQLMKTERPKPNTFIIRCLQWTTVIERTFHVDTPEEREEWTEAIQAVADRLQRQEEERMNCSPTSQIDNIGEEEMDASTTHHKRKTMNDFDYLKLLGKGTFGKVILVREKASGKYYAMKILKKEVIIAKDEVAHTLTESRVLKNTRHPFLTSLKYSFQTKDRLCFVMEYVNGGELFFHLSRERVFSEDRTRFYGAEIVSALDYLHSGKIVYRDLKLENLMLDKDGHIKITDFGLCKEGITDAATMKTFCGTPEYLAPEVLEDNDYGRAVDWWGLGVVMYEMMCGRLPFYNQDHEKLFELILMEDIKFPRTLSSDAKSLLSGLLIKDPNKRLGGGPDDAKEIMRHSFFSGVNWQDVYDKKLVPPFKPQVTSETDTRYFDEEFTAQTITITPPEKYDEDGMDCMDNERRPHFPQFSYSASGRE
# Tyrosine-protein kinase JAK1 (Homo sapiens), sequence (P23458 whole entry): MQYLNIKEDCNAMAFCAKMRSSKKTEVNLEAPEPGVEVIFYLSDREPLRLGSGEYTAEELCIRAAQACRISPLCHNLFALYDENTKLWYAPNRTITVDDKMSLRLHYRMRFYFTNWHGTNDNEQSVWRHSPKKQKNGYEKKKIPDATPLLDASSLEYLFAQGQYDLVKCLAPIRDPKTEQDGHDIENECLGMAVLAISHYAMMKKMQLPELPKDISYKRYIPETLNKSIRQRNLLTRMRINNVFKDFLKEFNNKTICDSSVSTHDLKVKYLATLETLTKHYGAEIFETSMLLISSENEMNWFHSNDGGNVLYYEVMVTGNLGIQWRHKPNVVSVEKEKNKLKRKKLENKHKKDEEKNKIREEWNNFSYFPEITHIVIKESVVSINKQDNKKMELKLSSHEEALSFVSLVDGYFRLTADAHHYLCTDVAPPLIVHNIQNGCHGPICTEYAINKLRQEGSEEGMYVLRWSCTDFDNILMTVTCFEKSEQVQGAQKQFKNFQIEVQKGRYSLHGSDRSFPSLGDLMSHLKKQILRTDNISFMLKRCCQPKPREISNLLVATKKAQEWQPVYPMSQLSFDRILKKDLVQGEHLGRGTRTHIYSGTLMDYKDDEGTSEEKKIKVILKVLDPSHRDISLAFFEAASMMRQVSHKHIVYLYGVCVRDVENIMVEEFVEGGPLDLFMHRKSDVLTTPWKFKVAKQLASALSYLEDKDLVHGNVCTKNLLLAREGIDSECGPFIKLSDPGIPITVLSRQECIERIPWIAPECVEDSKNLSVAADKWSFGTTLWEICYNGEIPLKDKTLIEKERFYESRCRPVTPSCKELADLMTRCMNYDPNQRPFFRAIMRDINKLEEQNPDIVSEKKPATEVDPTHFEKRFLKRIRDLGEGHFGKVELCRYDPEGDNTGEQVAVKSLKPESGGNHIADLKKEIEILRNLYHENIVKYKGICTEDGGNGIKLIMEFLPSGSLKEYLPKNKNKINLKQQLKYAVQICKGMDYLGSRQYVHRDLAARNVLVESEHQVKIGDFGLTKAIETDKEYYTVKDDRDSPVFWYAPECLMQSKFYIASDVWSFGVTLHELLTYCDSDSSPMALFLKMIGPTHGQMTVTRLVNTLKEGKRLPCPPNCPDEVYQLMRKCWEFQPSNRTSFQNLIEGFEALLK
# RAC-beta serine/threonine-protein kinase (Homo sapiens), sequence (P31751 whole entry): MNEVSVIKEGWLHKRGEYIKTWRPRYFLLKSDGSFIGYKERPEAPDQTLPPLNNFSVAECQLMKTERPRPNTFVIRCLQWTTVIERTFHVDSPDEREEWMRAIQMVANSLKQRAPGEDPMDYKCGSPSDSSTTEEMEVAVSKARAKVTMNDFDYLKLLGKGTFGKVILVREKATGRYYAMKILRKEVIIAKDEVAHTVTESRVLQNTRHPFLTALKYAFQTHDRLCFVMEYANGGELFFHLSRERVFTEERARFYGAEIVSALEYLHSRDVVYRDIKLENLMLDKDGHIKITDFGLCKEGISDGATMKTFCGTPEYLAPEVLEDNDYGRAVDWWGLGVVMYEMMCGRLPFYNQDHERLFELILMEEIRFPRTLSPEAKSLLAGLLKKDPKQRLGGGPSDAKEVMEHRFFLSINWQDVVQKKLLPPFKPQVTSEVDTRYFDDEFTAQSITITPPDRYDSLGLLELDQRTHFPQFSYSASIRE
# Ribosomal protein S6 kinase alpha-1 (Homo sapiens), sequence (Q15418 whole entry): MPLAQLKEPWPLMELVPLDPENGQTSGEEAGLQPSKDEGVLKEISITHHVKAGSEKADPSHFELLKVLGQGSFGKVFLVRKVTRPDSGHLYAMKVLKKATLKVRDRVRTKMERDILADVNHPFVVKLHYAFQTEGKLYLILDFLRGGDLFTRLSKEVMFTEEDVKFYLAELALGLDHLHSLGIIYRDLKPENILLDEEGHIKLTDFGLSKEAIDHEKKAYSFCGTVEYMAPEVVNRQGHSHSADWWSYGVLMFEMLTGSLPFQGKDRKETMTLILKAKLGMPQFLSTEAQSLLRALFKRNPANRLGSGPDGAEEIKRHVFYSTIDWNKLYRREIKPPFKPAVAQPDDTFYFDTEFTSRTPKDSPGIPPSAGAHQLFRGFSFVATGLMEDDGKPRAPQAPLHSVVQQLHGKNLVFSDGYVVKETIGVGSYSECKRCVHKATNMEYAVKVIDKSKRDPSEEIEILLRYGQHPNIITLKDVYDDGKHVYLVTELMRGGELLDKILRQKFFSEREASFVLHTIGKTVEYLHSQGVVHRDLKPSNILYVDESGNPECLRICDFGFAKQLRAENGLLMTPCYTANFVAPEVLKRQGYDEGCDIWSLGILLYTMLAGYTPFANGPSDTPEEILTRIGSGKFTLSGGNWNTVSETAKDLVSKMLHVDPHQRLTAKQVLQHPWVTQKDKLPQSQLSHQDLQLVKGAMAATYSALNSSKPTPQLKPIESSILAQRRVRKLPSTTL
# Rho-associated protein kinase 1 (Homo sapiens), sequence (Q13464 2-1354 limits assumed): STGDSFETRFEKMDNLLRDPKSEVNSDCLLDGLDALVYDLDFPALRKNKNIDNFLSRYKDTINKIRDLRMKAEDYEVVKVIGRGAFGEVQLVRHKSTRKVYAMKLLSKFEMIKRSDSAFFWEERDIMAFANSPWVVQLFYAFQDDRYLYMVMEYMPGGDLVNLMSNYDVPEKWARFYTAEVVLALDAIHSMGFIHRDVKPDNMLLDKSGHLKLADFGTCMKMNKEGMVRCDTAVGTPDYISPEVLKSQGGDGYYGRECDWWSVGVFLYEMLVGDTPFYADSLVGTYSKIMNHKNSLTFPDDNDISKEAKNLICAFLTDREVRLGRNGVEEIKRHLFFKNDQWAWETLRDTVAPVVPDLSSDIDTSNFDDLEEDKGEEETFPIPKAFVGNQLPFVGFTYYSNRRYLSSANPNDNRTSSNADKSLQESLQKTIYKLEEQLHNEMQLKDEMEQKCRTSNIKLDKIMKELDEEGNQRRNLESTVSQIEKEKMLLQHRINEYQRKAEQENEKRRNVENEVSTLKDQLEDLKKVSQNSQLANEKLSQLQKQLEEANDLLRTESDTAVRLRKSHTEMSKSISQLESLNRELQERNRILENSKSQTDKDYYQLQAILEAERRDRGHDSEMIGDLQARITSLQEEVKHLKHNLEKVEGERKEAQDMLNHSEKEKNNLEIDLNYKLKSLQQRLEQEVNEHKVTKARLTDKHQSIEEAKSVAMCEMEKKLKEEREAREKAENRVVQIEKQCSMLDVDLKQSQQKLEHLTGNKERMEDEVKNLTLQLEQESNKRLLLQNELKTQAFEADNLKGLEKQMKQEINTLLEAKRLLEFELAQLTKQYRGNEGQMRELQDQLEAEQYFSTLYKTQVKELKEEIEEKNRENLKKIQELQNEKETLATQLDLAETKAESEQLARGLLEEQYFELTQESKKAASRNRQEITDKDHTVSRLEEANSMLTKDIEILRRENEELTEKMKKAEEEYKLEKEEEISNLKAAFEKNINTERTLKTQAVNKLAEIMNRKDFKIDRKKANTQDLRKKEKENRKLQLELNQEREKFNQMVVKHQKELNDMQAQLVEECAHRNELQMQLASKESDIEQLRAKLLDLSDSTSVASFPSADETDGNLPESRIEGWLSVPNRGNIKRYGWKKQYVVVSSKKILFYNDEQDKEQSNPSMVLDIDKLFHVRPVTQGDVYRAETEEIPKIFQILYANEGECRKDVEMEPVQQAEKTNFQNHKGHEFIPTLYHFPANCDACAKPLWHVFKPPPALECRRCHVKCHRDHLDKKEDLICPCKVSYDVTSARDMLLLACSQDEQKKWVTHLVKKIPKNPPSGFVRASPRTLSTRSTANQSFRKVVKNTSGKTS
# MAP kinase-interacting serine/threonine-protein kinase 1 (Homo sapiens), sequence (Q9BUB5 whole entry, looked up): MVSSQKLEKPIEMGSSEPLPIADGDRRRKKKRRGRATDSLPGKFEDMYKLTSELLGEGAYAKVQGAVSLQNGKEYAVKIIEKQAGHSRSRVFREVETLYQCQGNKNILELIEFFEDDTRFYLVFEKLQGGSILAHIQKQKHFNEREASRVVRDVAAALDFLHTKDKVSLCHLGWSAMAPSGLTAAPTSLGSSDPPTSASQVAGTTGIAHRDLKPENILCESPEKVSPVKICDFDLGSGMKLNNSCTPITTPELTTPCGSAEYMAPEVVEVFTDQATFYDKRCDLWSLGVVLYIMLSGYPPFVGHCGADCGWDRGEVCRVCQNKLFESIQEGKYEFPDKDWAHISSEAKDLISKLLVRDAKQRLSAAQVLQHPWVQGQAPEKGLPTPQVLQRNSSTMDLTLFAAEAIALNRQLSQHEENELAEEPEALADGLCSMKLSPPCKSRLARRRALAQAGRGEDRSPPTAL
# Cyclin-dependent kinase 1 (Homo sapiens), sequence (P06493 whole entry, looked up): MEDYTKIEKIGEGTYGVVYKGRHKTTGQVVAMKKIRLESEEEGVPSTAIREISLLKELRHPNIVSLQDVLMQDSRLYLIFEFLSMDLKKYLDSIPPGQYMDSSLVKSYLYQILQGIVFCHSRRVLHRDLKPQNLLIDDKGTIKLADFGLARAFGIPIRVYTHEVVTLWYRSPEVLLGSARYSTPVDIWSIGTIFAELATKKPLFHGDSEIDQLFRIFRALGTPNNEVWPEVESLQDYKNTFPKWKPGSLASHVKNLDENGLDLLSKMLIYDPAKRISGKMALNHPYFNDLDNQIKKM
compound,measurement,setting,value
CC(C)NCC(C(=O)N1CCN(c2ncnc3[nH]nc(Cl)c23)CC1)c1ccc(Br)cc1 (stereo not given),Activity,[1],15.13%
same,Activity,[2],>20%
same,Activity,[3],52.46%
same,Activity,[4],32.69%
same,Activity,[5],14.35%
same,Activity,[6],53.89%
same,Activity,[7],36.86%
same,Activity,[8],9.25%
same,Activity,[9],46.45%
same,Activity,[10],47.17%
same,Activity,[11],6.37%
same,inhibition,[12],Active
same,Activity,[13],Active; Negative Feedback Regulation Within Akt Signaling Pathway Observed
same,IC50,[14],2.9 µM
Cc1c[nH]c2ncnc(N3CCN(C(=O)C(CNC(C)C)c4ccc(Br)cc4)CC3)c12 (stereo not given),IC50,[14],15.8 µM
CNc1nc(N2CCN(C(=O)C(CNC(C)C)c3ccc(Br)cc3)CC2)c2sccc2n1 (stereo not given),IC50,[14],4.9 µM
CNc1nc(N2CCN(C(=O)C(CNC(C)C)c3ccc(Br)cc3)CC2)c2cc[nH]c2n1 (stereo not given),IC50,[14],8.7 µM
CC(C)NCC(C(=O)N1CCN(c2ncnc3ccccc23)CC1)c1ccc(Cl)cc1Cl (stereo not given),IC50,[14],> 40 µM
CC(C)NCC(C(=O)N1CCN(c2ncnc3[nH]nc(Br)c23)CC1)c1ccc(Cl)cc1Cl (stereo not given),IC50,[14],7.8 µM
CC(C)NCC(C(=O)N1CCN(c2ncnc3[nH]ncc23)CC1)c1ccc(Br)cc1 (stereo not given),IC50,[14],12.4 µM
CNc1nccc(N2CCN(C(=O)C(CNC(C)C)c3ccc(Br)cc3)CC2)n1 (stereo not given),IC50,[14],> 40 µM
CCn1c(-c2nonc2N)nc2c(C#CC(C)(C)O)ncc(OC[C@H]3CCCNC3)c21 [GSK-690693],Activity,[1],10.52%
same,Activity,[3],48.89%
same,Activity,[4],45.34%
same,Activity,[5],5.77%
same,Activity,[6],48.64%
same,Activity,[7],46.38%
same,Activity,[8],4.98%
same,Activity,[9],48.79%
same,Activity,[10],47.26%
same,Activity,[11],3.96%
CC(C)NCC(C(=O)N1CCN(c2ncnc3[nH]cnc23)CC1)c1ccc(Cl)cc1Cl (stereo not given),IC50,[14],23.8 µM
CC(C)NCC(C(=O)N1CCN(c2ncnc3[nH]cnc23)CC1)c1ccc(Br)cc1 (stereo not given),IC50,[14],20.1 µM
CC(C)NCC(C(=O)N1CCN(c2ncnc3[nH]nc(Br)c23)CC1)c1ccc(Br)cc1 (stereo not given),Activity,[1],12.28%
same,Activity,[2],>20%
same,Activity,[3],49.42%
same,Activity,[4],38.35%
same,Activity,[5],12.24%
same,Activity,[6],53.21%
same,Activity,[7],36.75%
same,Activity,[8],10.04%
same,Activity,[9],52.45%
same,Activity,[10],38.31%
same,Activity,[11],9.23%
same,inhibition,[12],Active
same,Activity,[13],Active; Negative Feedback Regulation Within Akt Signaling Pathway Observed
same,inhibition,[15],64%
same,inhibition,[16],89%
same,inhibition,[17],99%
same,inhibition,[18],98%
same,inhibition,[19],101%
same,inhibition,[20],91%
same,inhibition,[21],< 60%
same,inhibition,[22],< 60%
same,inhibition,[23],< 60%
same,inhibition,[24],< 60%
same,inhibition,[25],< 60%
same,inhibition,[26],< 60%
same,inhibition,[27],< 60%
same,clearance,[28],78.6 mL/min/kg
same,half-life,[29],1.85 h
same,AUC(0-t) at 24 h,[30],202 ng·h/mL
same,AUC(0-inf),[31],214 ng·h/mL
same,Vd,[32],12.3 L/kg
same,MRT inf,[33],1.68 h
same,half-life,[34],1.59 h
same,AUC(0-t) at 24 h,[35],830 ng·h/mL
same,AUC(0-inf),[36],876 ng·h/mL
same,MRT inf,[37],2.43 h
same,Tmax,[38],0.5 h
same,Cmax,[39],306 ng/mL
same,bioavailability,[40],41%
same,IC50,[14],3 µM
CC(C)NCC(C(=O)N1CCN(c2ncnc3[nH]ncc23)CC1)c1ccc(Cl)cc1Cl (stereo not given),IC50,[14],> 40 µM
Cc1c[nH]c2ncnc(N3CCN(C(=O)C(CNC(C)C)c4ccc(Cl)cc4Cl)CC3)c12 (stereo not given),IC50,[14],22 µM
CNc1nccc(N2CCN(C(=O)C(CNC(C)C)c3ccc(Cl)cc3Cl)CC2)n1 (stereo not given),IC50,[14],27.8 µM
CNc1nc(N2CCN(C(=O)C(CNC(C)C)c3ccc(Cl)cc3Cl)CC2)c2cc[nH]c2n1 (stereo not given),IC50,[14],18.1 µM
CC(C)NCC(C(=O)N1CCN(c2ncnc3[nH]nc(Cl)c23)CC1)c1ccc(Cl)cc1Cl (stereo not given),IC50,[14],3.5 µM
CC(C)NCC(C(=O)N1CCN(c2ncnc3ccccc23)CC1)c1ccc(Br)cc1 (stereo not given),IC50,[14],30.2 µM
CNc1nc(N2CCN(C(=O)C(CNC(C)C)c3ccc(Cl)cc3Cl)CC2)c2sccc2n1 (stereo not given),IC50,[14],5.9 µM

# Source: ChEMBL document CHEMBL6134816, “The discovery of novel N-heterocyclic-based AKT inhibitors with potential efficacy against prostate cancer” (Eur J Med Chem, 2025)
